The term ILS denotes how much longer treated animals lived than controls.

Converted amounts (≈) assume the structure as drawn. Read-outs that look alike come from different tables or passages of the source.

The test system of one assay is Escherichia coli ATCC 26. Description: Antibacterial activity, agar dilution method (MIC). The class given is cell-based. An excerpt: (§1) The antibacterial activity as determined by the agar dilution method using a medium prepared by dissolving 3 g of Bacto-Tryptone (a product of Difco Laboratories), 3 g of a meat extract, 1 g of an yeast extract, 1 g of glucose and 16 g of agar in one liter of water (pH 7).
EC: Escherichia coli ATCC 26
For orientation: In agar dilution the substance is mixed into plates at graded concentrations.

The test system of assay [1] is Enterococcus faecium ATCC 10541. Briefly: Antibacterial activity, agar dilution method (MIC). It is filed as cell-based.
Text: as §1
EF: Enterococcus faecium ATCC 10541

The subject of assay [2] is Bacillus subtilis No. 10707. Description: Antibacterial activity, agar dilution method (MIC). The class given is cell-based.
Text: as §1
BS: Bacillus subtilis No. 10707

Assay [3] concerns Staphylococcus aureus ATCC 6538P. Description: Antibacterial activity, agar dilution method (MIC). The class given is cell-based. To be noted: for MIC: ATCC6538P.
Text: as §1
SA: Staphylococcus aureus ATCC 6538P

For assay [4], the system named is Klebsiella pneumoniae ATCC 10031. Description: Antibacterial activity, agar dilution method (MIC). The class given is cell-based.
Text: as §1
KP: Klebsiella pneumoniae ATCC 10031

The test system of the next assay is P388 Leukemia. Briefly: Antitumor activity against P388 leukemia in mice (increased life span). It is filed as in vivo, CDF1 mice. To be noted: Mus musculus, P388, ip, 720 h. How it is done: Ascites were collected from the abdominal cavity of P388 ascites tumor-bearing cancer mice (DBA/2) on the 7th day after transplantation. A number of P388 cells in the ascites was counted, and a tumor cell floating liquid of 5×10^6 cells/ml was prepared using a physiological saline solution. Then, 0.2 ml of the solution containing 1×10^6 cells was transplanted into the abdominal cavity of CDF1 mice having a body weight of from 20 to 25 g.
The effect of the test compound was determined in terms of the ratio of average survival days of the group administered with the test compound to average survival days of the control group (non-medicated group) (i.e., an increased life span, ILS%).

[5] abbreviates: ATCC10541, EF: Enterococcus faecium ATCC 10541, pH 7, read-out: MIC (minimum growth inhibitory concentration).
[6] abbreviates: BS: Bacillus subtilis No. 10707, pH 7, read-out: MIC (minimum growth inhibitory concentration).
Setting [7] is: SA: Staphylococcus aureus ATCC 6538P, agar dilution, pH 7, read-out: MIC (minimum growth inhibitory concentration).
Where [8] appears, read: ATCC10031, KP: Klebsiella pneumoniae ATCC 10031, agar dilution, pH 7, read-out: MIC (minimum growth inhibitory concentration).
[9] abbreviates: ATCC26, EC: Escherichia coli ATCC 26, pH 7, read-out: MIC (minimum growth inhibitory concentration).
Where [10] appears, read: Escherichia coli, ATCC26, pH 7, read-out: MIC (minimum growth inhibitory concentration), EC: Escherichia coli ATCC 26.
[11] abbreviates: Enterococcus faecium, ATCC10541, pH 7, read-out: MIC (minimum growth inhibitory concentration), EF: Enterococcus faecium ATCC 10541.
Where [12] appears, read: Bacillus subtilis, NO.10707, pH 7, read-out: MIC (minimum growth inhibitory concentration), BS: Bacillus subtilis No. 10707.
The mark [13] stands for this setting: Staphylococcus aureus, pH 7, read-out: MIC (minimum growth inhibitory concentration).
[14] abbreviates: Klebsiella pneumoniae, ATCC10031, pH 7, read-out: MIC (minimum growth inhibitory concentration).

Take `C/C1=C\C(OC2CCCCO2)C(=O)/C=C/C=C\c2csc(n2)C(C)N2C(=O)CC(C(C)(O)C(=O)SCc3oc(=O)oc3C)(CC1)[S+]2[O-]` (single isomer, unassigned) [Compound 64]: the “MIC (minimum growth inhibitory concentration)” value in the assay on Escherichia coli ATCC 26 (EC: Escherichia coli ATCC 26, pH 7) was 5.2 µg/mL (≈ 7.36 µM); in assay [1] (EF: Enterococcus faecium ATCC 10541, pH 7), 1.3 µg/mL (≈ 1.84 µM); in assay [2] (BS: Bacillus subtilis No. 10707, pH 7), 0.16 µg/mL (≈ 0.226 µM); in assay [3] (SA: Staphylococcus aureus ATCC 6538P, agar dilution, pH 7) it was 0.65 µg/mL (≈ 0.92 µM); in assay [4] (KP: Klebsiella pneumoniae ATCC 10031, agar dilution, pH 7) it was 5.2 µg/mL (≈ 7.36 µM).
Take `CC(=O)OC1/C=C(\C)CCC2(CC(=O)NC(C)c3nc(cs3)/C=C\C=C\C1=O)[S+]([O-])SC(=O)C2(C)O` (centres unmarked) [Compound 1]: the MIC in assay [1] (setting [5]) turned out to be 0.52 µg/mL (≈ 0.941 µM); in assay [2] (setting [6]), 0.26 µg/mL (≈ 0.47 µM); in assay [3] (setting [7]), 0.52 µg/mL (≈ 0.941 µM); in assay [4] (setting [8]) it was 17 µg/mL (≈ 30.8 µM).
Take `C/C1=C\C(OC(=O)c2ccc(F)cc2)C(=O)/C=C/C=C\c2csc(n2)C(C)NC(=O)CC2(CC1)[S+]([O-])SC(=O)C2(C)O` (centres unmarked) [Compound 8]: the MIC worked out at 1.3 µg/mL (≈ 2.05 µM) in the assay on Escherichia coli ATCC 26 (setting [9]); 0.081 µg/mL (≈ 0.128 µM) in assay [1] (setting [5]); 0.02 µg/mL (≈ 0.0316 µM) in assay [2] (setting [6]); 0.081 µg/mL (≈ 0.128 µM) in assay [3] (setting [7]); 1.3 µg/mL (≈ 2.05 µM) in assay [4] (setting [8]).
Turning to `CCOC(=O)OC1/C=C(\C)CCC2(CC(=O)NC(C)c3nc(cs3)/C=C\C=C\C1=O)[S+]([O-])SC(=O)C2(C)O` (centres unmarked) [Compound 10], the MIC worked out at 4.2 µg/mL (≈ 7.21 µM) with Escherichia coli ATCC 26 (setting [9]); 0.26 µg/mL (≈ 0.446 µM) in assay [1] (setting [5]); 0.13 µg/mL (≈ 0.223 µM) in assay [2] (setting [6]); 0.26 µg/mL (≈ 0.446 µM) in assay [3] (setting [7]); 4.2 µg/mL (≈ 7.21 µM) in assay [4] (setting [8]).
Take `C/C1=C\C(OC(=O)OCC2c3ccccc3-c3ccccc32)C(=O)/C=C/C=C\c2csc(n2)C(C)NC(=O)CC2(CC1)[S+]([O-])SC(=O)C2(C)O` (centres unmarked) [Compound 15]: the MIC in assay [1] (setting [5]) was 0.081 µg/mL (≈ 0.111 µM); in assay [2] (setting [6]) it was 0.041 µg/mL (≈ 0.0559 µM); in assay [3] (setting [7]) it was 0.16 µg/mL (≈ 0.218 µM). This compound also had an ILS at 16 mg/kg with P388 Leukemia (16 mg/kg, single i.p. 24 hours after transplantation, CDF1 mice, 30 days observation) of 63%.
As for `C/C1=C\C(OC2CCCCO2)C(=O)/C=C/C=C\c2csc(n2)C(C)NC(=O)CC2(CC1)[S+]([O-])SC(=O)C2(C)O` (centres unmarked) [Compound 18], the MIC with Escherichia coli ATCC 26 (setting [10]) amounted to 1.3 µg/mL (≈ 2.19 µM); in assay [1] (setting [11]), 0.16 µg/mL (≈ 0.269 µM); in assay [2] (setting [12]) it was 0.041 µg/mL (≈ 0.0689 µM); in assay [3] (setting [13]), 0.16 µg/mL (≈ 0.269 µM); in assay [4] (setting [14]), 2.6 µg/mL (≈ 4.37 µM).
As for `CC(=O)OC1(C)C(=O)S[S+]([O-])C12CC/C(C)=C/C(O)C(=O)/C=C/C=C\c1csc(n1)C(C)NC(=O)C2` (centres unmarked) [Compound 25], the MIC was determined as 42 µg/mL (≈ 76 µM) with Escherichia coli ATCC 26 (setting [9]); 2.6 µg/mL (≈ 4.7 µM) in assay [1] (setting [5]); 10 µg/mL (≈ 18.1 µM) in assay [2] (setting [6]); 1.3 µg/mL (≈ 2.35 µM) in assay [3] (setting [7]); 10 µg/mL (≈ 18.1 µM) in assay [4] (setting [8]).
Consider `COCOC1/C=C(\C)CCC2(CC(=O)NC(C)c3nc(cs3)/C=C\C=C\C1=O)[S+]([O-])SC(=O)C2(C)O` (centres unmarked) [Compound 30], for which the MIC in the assay with Escherichia coli ATCC 26 (setting [9]) is 8.3 µg/mL (≈ 15 µM); in assay [1] (setting [5]), 0.065 µg/mL (≈ 0.117 µM); in assay [2] (setting [6]) it was 0.033 µg/mL (≈ 0.0595 µM); in assay [3] (setting [7]), 0.13 µg/mL (≈ 0.234 µM); in assay [4] (setting [8]) it was 1 µg/mL (≈ 1.8 µM).
`C/C1=C\C(OC(=O)OCC(C)C)C(=O)/C=C/C=C\c2csc(n2)C(C)N2C(=O)CC(C(C)(O)C(=O)SCc3oc(=O)oc3C)(CC1)[S+]2[O-]` (centres unmarked) [Compound 54]: the MIC in the assay with Escherichia coli ATCC 26 (setting [10]) was found to be 0.018 µg/mL (≈ 0.0249 µM); in assay [1] (setting [11]), 0.13 µg/mL (≈ 0.18 µM); in assay [3] (setting [13]) it was 0.13 µg/mL (≈ 0.18 µM). In addition, the ILS at 2 mg/kg with P388 Leukemia (read-out: ILS (increased life span)) stood at 42%.
Turning to `C/C1=C\C(OCOCc2ccccc2)C(=O)/C=C/C=C\c2csc(n2)C(C)N2C(=O)CC(C(C)(O)C(=O)SCc3oc(=O)oc3C)(CC1)[S+]2[O-]` (centres unmarked) [Compound 61], the MIC with Escherichia coli ATCC 26 (setting [10]) was determined as 2.6 µg/mL (≈ 3.5 µM); in assay [1] (setting [11]) it was 0.65 µg/mL (≈ 0.875 µM); in assay [2] (setting [12]) it was 0.081 µg/mL (≈ 0.109 µM); in assay [3] (setting [13]) it was 0.65 µg/mL (≈ 0.875 µM).
As to `C/C1=C\C(O)C(=O)/C=C/C=C\c2csc(n2)C(C)N2C(=O)CC(C(C)(O)C(=O)SCOC(=O)C3CCC3)(CC1)[S+]2[O-]` (centres unmarked) [Compound 78], the MIC turned out to be 9.4 µg/mL (≈ 15.1 µM) in assay [1] (setting [11]), 0.073 µg/mL (≈ 0.117 µM) in assay [2] (setting [12]), 4.7 µg/mL (≈ 7.55 µM) in assay [3] (setting [13]) and 2.3 µg/mL (≈ 3.69 µM) in assay [4] (setting [14]).
For `C/C1=C\C(O)C(=O)/C=C/C=C\c2csc(n2)C(C)N2C(=O)CC(C(C)(O)C(=O)SCOC(=O)C3CCCCC3)(CC1)[S+]2[O-]` (centres unmarked) [Compound 80], the MIC in assay [1] (setting [11]) was 5.2 µg/mL (≈ 7.99 µM); in assay [2] (setting [12]), 0.041 µg/mL (≈ 0.063 µM); in assay [3] (setting [13]) it was 2.6 µg/mL (≈ 3.99 µM).

Source of the values: patent publication US5733924A, “DC 107 derivatives and treatment methods” (Kyowa Hakko Kogyo Co., Ltd., priority 1995, dated 1998).
